In US20040018527A1, “Differential patterns of gene expression that predict for docetaxel chemosensitivity and chemo resistance” (priority 2002, published 2004):

Experiments:
[1] = system: MDA-MB-23 1 breast cancer cell line; settings: MDA-MB-23 1 cells overexpressing heat shock protein 27; cited from earlier work
[2] = system: HSP27-overexpressing cell lines; settings: cited from earlier work
[3] = system: locally advanced breast cancer; experiment: phase II study with neoadjuvant docetaxel, clinical response (residual disease) after 4 cycles; format: in vivo, human
From the text: From September 1999 to June 2001, patients with locally advanced breast cancer (primary cancers greater than 4 cm, or with clinically evident axillary metastases) were considered for a phase II study with neoadjuvant docetaxel. The inclusion criteria were 1) age greater than 18 years and a diagnosis of breast cancer confirmed by core needle biopsy, 2) premenopausal status accompanied by appropriate contraception, 3) adequate performance status, and 4) adequate liver and kidney function tests (all within 1.5 times the upper limit of normal). Exclusion criteria included 1) severe underlying chronic illness or disease, and 2) treatment with other chemotherapeutic drugs while on study.
Clinical staging and size of primary tumor was recorded at the start of treatment, at each cycle, and after completion of 4 cycles of chemotherapy. Tumor size (product of the two largest perpendicular diameters) measured before and after 4 cycles of neoadjuvant chemotherapy was used to compute the percentage of residual disease. The median residual disease was then calculated, and this degree of response was then used to divide the cancers into 2 groups of sensitive and resistant categories of approximately equal numbers before gene expression analysis.
Core biopsies of the primary cancers were undertaken before administration of single agent docetaxel as neoadjuvant treatment. Docetaxel at 100 mg/m2 was given every three weeks for a total of 4 cycles, and clinical response assessed after the fourth cycle, at 12 weeks. As the standard of care, patients were continued on neoadjuvant chemotherapy through the full 4 cycles unless there was clear documentation of progressive disease, defined as increase in tumor size of more than 25%. Primary surgery and standard adjuvant therapy was then administered following completion of neoadjuvant docetaxel. In order to maximize the likelihood of obtaining sufficient tissue, approximately six core biopsies using a Bard MaxCore Biopsy Instrument (#MC1410) were taken. Biopsies were performed under local anesthesia, using the same entry point, but reorienting the needle. Two to three core biopsy specimens were immediately transferred for snap freezing at −80° C. for cDNA array analysis. The remaining specimens were fixed in formalin for diagnostic and possible immunohistochemical analysis.
The clinical characteristics of the 24 patients enrolled in this phase II neoadjuvant study are included in Table 1. Before treatment, the median tumor size was 8 cm (range 4 to 30 cm). Prior to gene expression analysis, the sensitivity and resistance was defined based on the percentage of residual disease after treatment. It was determined that the median residual disease after chemotherapy was 30%. Then, it was arbitrarily defined that sensitive tumors were those with 25% residual disease or less and resistant tumors were those with greater than 25% residual disease, as this cut-off divides the numbers of patients almost equally into two groups for statistical comparison. In addition, the presenting tumors were large in this study of locally advanced breast cancer, and tumor regressions of at least 75% following chemotherapy would almost certainly represent clinically responsive disease.

| SMILES | association of HSP27 overexpression with drug resistance [1] | sensitivity to docetaxel [2] | resistant tumors with residual tumors 100% or greater of baseline ([3]; 3/13 resistant tumors) [%] | sensitive tumors with minimal residual disease (<10% residual tumor) ([3]; 5/11 sensitive tumors) [%] | residual disease, independent cohort ([3]; 6 additional patients of the same clinical study, all 6 sensitive tumors) | resistant tumors with residual tumors ≧60% ([3]; 7/13 resistant tumors) [%] | patients sensitive to docetaxel (25% residual disease or less) ([3]; 11 of 24 patients) [%] | patients resistant to docetaxel (greater than 25% residual disease) ([3]; 13 of 24 patients) [%] | median residual disease after chemotherapy ([3]; 24 patients, docetaxel 100 mg/m2 every three weeks, 4 cycles, tumor size after vs before, at 12 weeks) [%] |
| --- | --- | --- | --- | --- | --- | --- | --- | --- | --- |
| COc1cccc2c1C(=O)c1c(O)c3c(c(O)c1C2=O)C[C@@](O)(C(=O)CO)C[C@@H]3O[C@H]1C[C@H](N)[C@H](O)[C@H](C)O1 [Adriamycin] | resistance | – | – | – | – | – | – | – | – |
| CC(=O)O[C@@]12CO[C@@H]1C[C@H](O)[C@@]1(C)C(=O)[C@H](O)C3=C(C)[C@@H](OC(=O)[C@H](O)[C@@H](NC(=O)OC(C)(C)C)c4ccccc4)C[C@@](O)([C@@H](OC(=O)c4ccccc4)[C@H]21)C3(C)C [docetaxel] | – | remain sensitive | 23 | 45 | less than 25% | 58 | 46 | 54 | 30 |
